# pIC50: −log10 of the molar value. Values joined by “and” are separate entries in the source; they are usually repeats but may differ in a detail not shown here. Identical values can stand only once. Active and inactive are the calls of the source. How the calls were made is not given here.
# Target: Ubiquitin-conjugating enzyme E2 N (Homo sapiens) (UniProt P61088)
# Test: Ubc13/Uev1a ubiquitination inhibitors, SAR follow-up, biochemical, TR-FRET, set 2 (AID 485351)
# Conditions: in vitro Ubc13-Uev1a ubiquitination
# Ubiquitin-conjugating enzyme E2 N (Homo sapiens), sequence (P61088 whole entry, looked up): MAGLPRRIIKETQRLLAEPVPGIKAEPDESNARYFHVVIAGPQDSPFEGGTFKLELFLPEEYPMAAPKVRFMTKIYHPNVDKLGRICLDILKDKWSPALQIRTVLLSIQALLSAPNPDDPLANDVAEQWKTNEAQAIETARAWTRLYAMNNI
Structure (SMILES),IC50,pIC50
COC(=O)C1=C(C(=O)OC)C2([C@@H](Cc3ccccc3)Nc3ccc(Cl)cc3)C=CC1O2 (some centres undefined),> 100 µM (inactive),–
CCCCn1c(NC(=O)C2CCCCC2)c(C#N)c2nc3ccccc3nc21,–,6.30
C=CC[C@H](N(Cc1ccccc1)/C(=C\C(=O)OC)C(=O)OC)C12C=CC(O1)C(C(=O)OC)=C2C(=O)OC (some centres undefined),> 100 µM (inactive),–
COC(=O)C1=C(C(=O)OC)C2([C@@H](C)Nc3ccccc3)C=CC1O2 (some centres undefined),> 100 µM (inactive),–
Nc1c(C(=O)NCc2ccco2)c2nc3ccccc3nc2n1Cc1ccccc1,–,6.09
C=CC[C@@H](Nc1ccc(OC)cc1)C12C=CC(O1)C(C(=O)OC)=C2C(=O)OC (some centres undefined),–,4.10
Cc1cc(C)c2c(c1)C(=O)C(=O)N2CCN1CCOCC1,> 100 µM (inactive),–
COc1ccc2c(c1)C(NC(C)=O)C(=O)N2CCc1ccccc1 (centres undefined),> 100 µM (inactive),–
COc1cc(/C=C2\C(=O)N(c3ccccc3)N=C2C)ccc1OC(=O)c1cccs1,> 100 µM (inactive),–
CCCCn1c(NC(=O)c2ccccc2Cl)c(C#N)c2nc3ccccc3nc21,–,6.16 and 6.00
COc1cc(/C=C2\C(=O)N(c3ccccc3)N=C2C)ccc1O,> 100 µM (inactive),–
C=CC[C@H](Nc1ccc(OC)cc1)C12C=CC(O1)C(C(=O)OC)=C2C(=O)OC (some centres undefined),> 100 µM (inactive),–
CCCC1=NN(c2ccc(C(=O)O)cc2)C(=O)/C1=C/c1ccc(OCc2ccccc2)c(OC)c1,> 100 µM (inactive),–
C=CCn1c(NS(=O)(=O)c2ccccc2)c(S(=O)(=O)c2ccc(C)cc2)c2nc3ccccc3nc21,–,6.11
COC(=O)C1=C(C(=O)OC)C2([C@H](C)Nc3ccc(Cl)cc3)C=CC1O2 (some centres undefined),–,4.28
C=CC[C@H](Nc1ccc(C)cc1)C12C=CC(O1)C(C(=O)OC)=C2C(=O)OC (some centres undefined),> 100 µM (inactive),–
C=CC[C@H](Nc1ccccc1)C12C=CC(O1)C(C(=O)OC)=C2C(=O)OC (some centres undefined),> 100 µM (inactive),–
C=CC[C@H](Nc1ccc(Cl)cc1)C12C=CC(O1)C(C(=O)OC)=C2C(=O)OC (some centres undefined),> 100 µM (inactive),–
N#Cc1c(NC(=O)c2ccccc2Cl)n(C2CCCCC2)c2nc3ccccc3nc12,–,5.55
C=CCC(Nc1ccccc1)C12C=CC(O1)C(C(=O)OC)=C2C(=O)OC (centres undefined),> 100 µM (inactive),–
CC(=O)NC1C(=O)N(CCN2CCOCC2)c2ccc(C)cc21 (centres undefined),> 100 µM (inactive),–
CCCCn1c(N)c(S(=O)(=O)c2ccc(C)cc2)c2nc3ccccc3nc21,–,5.68 and 6.06
COC(=O)C1=C(C(=O)OC)C2([C@@H](C)Nc3ccc(OC)cc3)C=CC1O2 (some centres undefined),> 100 µM (inactive),–
COC(=O)C1=C(C(=O)OC)C2([C@H](Cc3ccccc3)Nc3ccc(Cl)cc3)C=CC1O2 (some centres undefined),> 100 µM (inactive),–
C=CCn1c(NC(=O)c2ccccc2Cl)c(C#N)c2nc3ccccc3nc21,–,5.95
COC(=O)C1=C(C(=O)OC)C2([C@H](Cc3ccc(C)cc3)Nc3ccccc3)C=CC1O2 (some centres undefined),> 100 µM (inactive),–
CCCCn1c(NC(=O)c2ccc(F)cc2)c(C#N)c2nc3ccccc3nc21,–,5.94

Structure (SMILES),IC50,pIC50
COCCNC(=O)c1c(NC(=O)c2ccccc2)n(Cc2ccccc2)c2nc3ccccc3nc12,–,6.18
CCCCn1c(NC(=O)c2cccc(Cl)c2)c(C#N)c2nc3ccccc3nc21,–,5.87
CCC(=O)Nc1c(S(=O)(=O)c2ccccc2)c2nc3ccccc3nc2n1Cc1ccccc1,–,6.12
COC(=O)C1=C(C(=O)OC)C2([C@@H](Cc3ccc(OC)cc3)Nc3ccccc3)C=CC1O2 (some centres undefined),> 100 µM (inactive),–
COC(=O)C1=C(C(=O)OC)C2([C@@H](Cc3ccccc3)Nc3ccc(OC)cc3)C=CC1O2 (some centres undefined),> 100 µM (inactive),–
C=CC[C@@H](N(Cc1ccccc1)/C(=C\C(=O)OC)C(=O)OC)C12C=CC(O1)C(C(=O)OC)=C2C(=O)OC (some centres undefined),> 100 µM (inactive),–
CCCCn1c(NC(=O)c2ccccc2)c(S(=O)(=O)c2ccc(C)cc2)c2nc3ccccc3nc21,–,5.71 and 5.96
COC(=O)C1=C(C(=O)OC)C2([C@H](Cc3ccccc3)Nc3ccccc3)C=CC1O2 (some centres undefined),> 100 µM (inactive),–
CCCC1=NN(c2ccc(C(=O)O)cc2)C(=O)/C1=C/c1ccc(O)cc1,> 100 µM (inactive),–
COC(=O)C1=C(C(=O)OC)C2([C@@H](C)Nc3ccc(Cl)cc3)C=CC1O2 (some centres undefined),> 100 µM (inactive),–
COc1ccc2c(c1)C(NC(C)=O)C(=O)N2CC1COc2ccccc2O1 (centres undefined),> 100 µM (inactive),–
CCCCNC(=O)c1c(NC(=O)c2ccccc2)n(Cc2ccccc2)c2nc3ccccc3nc12,–,4.73
CCCCn1c(NC(=O)c2ccco2)c(C#N)c2nc3ccccc3nc21,–,6.11
C=CC[C@@H](Nc1ccc(Cl)cc1)C12C=CC(O1)C(C(=O)OC)=C2C(=O)OC (some centres undefined),> 100 µM (inactive),–
CCC[C@H](Nc1ccccc1)C12C=CC(O1)C(C(=O)OC)=C2C(=O)OC (some centres undefined),> 100 µM (inactive),–
COc1ccc(CN2C(=O)C(NC(C)=O)c3ccccc32)cc1 (centres undefined),> 100 µM (inactive),–
COC(=O)C1=C(C(=O)OC)C2([C@@H](Cc3ccc(C)cc3)Nc3ccccc3)C=CC1O2 (some centres undefined),> 100 µM (inactive),–
COC(=O)C1=C(C(=O)OC)C2([C@@H](C)Nc3ccc(C)cc3)C=CC1O2 (some centres undefined),> 100 µM (inactive),–
CCCCn1c(NC(=O)c2ccccc2Cl)c(S(=O)(=O)c2ccccc2)c2nc3ccccc3nc21,–,5.77
COC(=O)C1=C(C(=O)O)C2C=CC1([C@@H](Cc1ccccc1)Nc1ccccc1)O2 (some centres undefined),> 100 µM (inactive),–
CCCCn1c(NC(=O)c2ccccc2)c(C#N)c2nc3ccccc3nc21,–,5.92 and 6.00
COc1ccc2c(c1)C(NC(C)=O)C(=O)N2CCOc1ccccc1 (centres undefined),> 100 µM (inactive),–
C=C[C@@H](Nc1ccccc1)C12C=CC(O1)C(C(=O)OC)=C2C(=O)OC (some centres undefined),> 100 µM (inactive),–
C=CC[C@@H](Nc1ccccc1)C12C=CC(O1)C(C(=O)OC)=C2C(=O)OC (some centres undefined),> 100 µM (inactive),–
COC(=O)C1=C(C(=O)OC)C2([C@H](Cc3ccccc3)Nc3ccc(OC)cc3)C=CC1O2 (some centres undefined),> 100 µM (inactive),–
C=CC[C@@H](Nc1ccc(C)cc1)C12C=CC(O1)C(C(=O)OC)=C2C(=O)OC (some centres undefined),> 100 µM (inactive),–
CCCC1=NN(c2ccccc2)C(=O)/C1=C\c1ccc(O)cc1,> 100 µM (inactive),–

Structure (SMILES),IC50,pIC50
CCCCn1c(NC(C)=O)c(C#N)c2nc3ccccc3nc21,–,6.17
COC(=O)[C@@H]1C2CCC([C@@H](Cc3ccccc3)Nc3ccccc3)(O2)[C@@H]1C(=O)OC (some centres undefined),> 100 µM (inactive),–
CCCCn1c(NC(=O)c2ccc(Cl)cc2)c(C#N)c2nc3ccccc3nc21,–,6.07
CCCCn1c(NC(=O)c2ccco2)c(S(=O)(=O)c2ccc(C)cc2)c2nc3ccccc3nc21,–,6.09
N#Cc1c(NC(=O)c2ccccc2Cl)n(Cc2ccccc2)c2nc3ccccc3nc12,–,5.56
CCCCn1c(NC(=O)CC)c(S(=O)(=O)c2ccc(C)cc2)c2nc3ccccc3nc21,–,6.13
CCCCn1c(NC(=O)c2ccc(OC)cc2)c(S(=O)(=O)c2ccc(C)cc2)c2nc3ccccc3nc21,–,6.12
COC(=O)C1=C(C(=O)OC)C2(C(Cc3ccc(F)cc3)Nc3ccccc3)C=CC1O2 (centres undefined),> 100 µM (inactive),–
C=C[C@H](Nc1ccccc1)C12C=CC(O1)C(C(=O)OC)=C2C(=O)OC (some centres undefined),–,4.29
COC(=O)C1=C(C(=O)OC)C2([C@H](C)Nc3ccccc3)C=CC1O2 (some centres undefined),–,4.10
CCCCCn1c(NC(=O)c2ccco2)c(C(=O)OCC)c2nc3ccccc3nc21,–,6.30
c1ccc(CC(Nc2ccccc2)c2ccco2)cc1 (centres undefined),> 100 µM (inactive),–
COC(=O)C1=C(C(=O)OC)C2([C@@H](Cc3ccccc3)Nc3ccc(C)cc3)C=CC1O2 (some centres undefined),> 100 µM (inactive),–
CCCC1=NN(c2ccccc2)C(=O)/C1=C/c1ccc(OCc2ccc(C(=O)OC)cc2)cc1,> 100 µM (inactive),–
COc1cc(/C=C2\C(=O)N(c3ccccc3)N=C2C)ccc1OCc1ccccc1,> 100 µM (inactive),–
CCCN1C(=O)C(NC(C)=O)c2cc(OC)ccc21 (centres undefined),> 100 µM (inactive),–
COc1ccc2c(c1)C(=O)C(=O)N2CCN1CCOCC1,> 100 µM (inactive),–
CCCC1=NN(c2ccc(C(=O)O)cc2)C(=O)/C1=C/c1ccc(OCc2ccccc2)cc1,> 100 µM (inactive),–
COC(=O)C1=C(C(=O)OC)C2([C@@H](Cc3ccccc3)Nc3ccccc3)C=CC1O2 (some centres undefined),> 100 µM (inactive),–
CCCCn1c(NC(=O)c2ccc(F)cc2)c(S(=O)(=O)c2ccc(C)cc2)c2nc3ccccc3nc21,–,5.88
CCC[C@@H](Nc1ccccc1)C12C=CC(O1)C(C(=O)OC)=C2C(=O)OC (some centres undefined),> 100 µM (inactive),–
COCCn1c(NC(=O)c2ccc(Cl)cc2)c(S(=O)(=O)c2ccc(C)cc2)c2nc3ccccc3nc21,–,5.76
CCCCn1c(NS(=O)(=O)c2ccccc2)c(S(=O)(=O)c2ccc(C)cc2)c2nc3ccccc3nc21,–,6.13
COC(=O)C=C(NC(CO)(CO)CO)C(=O)OC,–,4.06
COC(=O)C1=C(C(=O)OC)C2([C@H](Cc3ccccc3)Nc3ccc(C)cc3)C=CC1O2 (some centres undefined),> 100 µM (inactive),–
